Reference: patent US20100204153A1, “USE OF BAND 3 PROTEIN (824-829) AND/OR MELANOCYTE-STIMULATING HORMONE RELEASE-INHIBITING FACTOR AS A THERAPEUTIC AGENT IN THE TREATMENT OF PSEUDOMONAS AERUGINOSA INFECTION” (priority 2007, published 2010)
Where no end group is shown, it is not given here.

Key:
HIV-1IIIB = experiment: HIV-1 antiviral assay in CEM-SS cells
HCMV strain AD169 = experiment: HCMV plaque formation assay in MRC-5 cells; type: cell-based; conditions: for inhibition of HCMV plaque formation as compared to the virus control experiment: 10 micrograms per ml, 7-10 days
[1] = test system: Primary Human endothelial cells (HUVEC); experiment: Endothelial cell migration assay; type: cell-based; conditions: 10 micrograms per ml; 22 hours
Procedure: Thereafter, designated concentration of testing peptides—10 micrograms per ml—was added in duplicate wells.

HUVEC = experiment: Endothelial tube formation assay; type: cell-based, human; conditions: 10 micrograms per ml; 20 hours
Text: Positive control was vehicle only.

murine spleen cells = experiment: Th1/Th2 cytokine profiling assay; type: cell-based, Balb/c mice; conditions: 10 micrograms per ml; Ovalbumin restimulation, 72 hours; combination 0.95:1.05 mole
[2] = test system: hepatitis B virus (HBV) ayw strain; experiment: HBV assay in HepG2-2.2.15 cells (TaqMan PCR of secreted HBV DNA); type: cell-based; conditions: 10 micrograms per ml; six days
Pseudomonas aeruginosa = Pseudomonas aeruginosa assay; type: cell-based; conditions: 10 micrograms per ml; 5×10^5 CFU/mL; combination 0.95:1.05 mole and all other molar ratios from 1:100 to 100:1

Compound: Cc1cn([C@H]2C[C@H](N=[N+]=[N-])[C@@H](CO)O2)c(=O)[nH]c1=O [AZT]
- antiviral activity of positive control compounds (HIV-1) (HIV-1IIIB): expected levels of antiviral activity

Compound: Tyr-Val-Lys-Arg-Val-Lys-OH (YVKRVK-OH) [Peptide 1]
- inhibition of HCMV plaque formation as compared to the virus control experiment (HCMV strain AD169): did not inhibit
- inhibition of the migration of human endothelial cells [1]: 8%
- inhibition of the tube formation of human endothelial cells (HUVEC): 21%
- change of the production of IFN-γ (murine spleen cells): did not significantly change
- change of the production of TNF-alpha (murine spleen cells): did not significantly change
- decrease of the production of IL-2 (murine spleen cells): 41.9%
- decrease of the production of IL-4 (murine spleen cells): 58.2%
- decrease of the production of IL-5 (murine spleen cells): 37.4%
- inhibition of HBV replication as compared to the virus control infection [2]: did not inhibit
- inhibition of the growth of Pseudomonas aeruginosa (Pseudomonas aeruginosa): 100%

Compound: CC(C)(C)NC(=O)[C@@H]1CN(Cc2cccnc2)CCN1C[C@@H](O)C[C@@H](Cc1ccccc1)C(=O)N[C@H]1c2ccccc2C[C@H]1O [indinavir]
- antiviral activity of positive control compounds (HIV-1) (HIV-1IIIB): expected levels of antiviral activity

Compound: Nc1nc(O)c2ncn(COC(CO)CO)c2n1 [Ganciclovir, reference compound]
- antiviral activity of positive control compound (HCMV) (HCMV strain AD169; positive control compound): expected levels of antiviral activity

Compound: Pro-Leu-Gly-NH2 [Peptide 2]
- inhibition of HCMV plaque formation as compared to the virus control experiment (HCMV strain AD169): did not inhibit
- induction of the migration of endothelial cells [1]: 8%
- inhibition of the tube formation of human endothelial cells (HUVEC): 16%
- change of the production of IFN-γ (murine spleen cells): did not significantly change
- change of the production of TNF-alpha (murine spleen cells): did not significantly change
- decrease of the production of IL-2 (murine spleen cells): 100%
- decrease of the production of IL-4 (murine spleen cells): 100%
- decrease of the production of IL-5 (murine spleen cells): 42.3%
- inhibition of HBV replication as compared to the virus control infection [2]: 10.9%
- inhibition of the growth of Pseudomonas aeruginosa (Pseudomonas aeruginosa): 100%
